From ChEMBL document CHEMBL1201862, “PubChem BioAssay data set” (2004)
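Interpolation was linear, between the two tested concentrations surrounding the appropriate level; five concentrations were tested over 48 hours in 96-well plates. The concentration for 50% growth inhibition is given as GI50.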 Active and inactive are the calls of the source. Cut-off read from the data, not from the text of the source: active = GI50 up to about 1.1 µM and inactive = higher.

Experiments:
Assay in all cases: NCI tumour cell line growth inhibition, 48 h
[1] = test system: ACHN
[2] = test system: LOX IMVI
[3] = test system: UACC-257
[4] = test system: K562
[5] = test system: HT-29
[6] = test system: SK-MEL-2
[7] = test system: SF-268
[8] = test system: SF-539
[9] = test system: SK-MEL-5
[10] = test system: NCI/ADR-RES
[11] = test system: EKVX
[12] = test system: CCRF-CEM
[13] = test system: SK-MEL-28
[14] = test system: HL-60
[15] = test system: NCI-H460
[16] = test system: SNB-19
[17] = test system: HOP-92
[18] = test system: U-251
[19] = test system: IGROV-1
[20] = test system: UACC-62

SMILES | GI50 [1] | GI50 [2] | GI50 [3] | GI50 [4] | GI50 [5] | GI50 [6] | GI50 [7] | GI50 [8] | GI50 [9] | GI50 [10] | GI50 [11] | GI50 [12] | GI50 [13] | GI50 [14] | GI50 [15] | GI50 [16] | GI50 [17] | GI50 [18] | GI50 [19] | GI50 [20]
CC(C)C(=O)OCN(C)c1nc(N(C)COC(=O)C(C)C)nc(N(C)COC(=O)C(C)C)n1 | 32 µM (inactive) | 14.6 µM (inactive) | 19.1 µM (inactive) | 30.5 µM (inactive) | 25.2 µM (inactive) | 23.2 µM (inactive) | > 10 µM (inactive) | 23.2 µM (inactive) | 15.1 µM (inactive) | 34.8 µM (inactive) | > 100 µM (inactive) | 22.3 µM (inactive) | 19.8 µM (inactive) | 22.3 µM (inactive) | 21.8 µM (inactive) | 42.1 µM (inactive) | – | – | – | –
CCOC(=O)CNC(=O)C(C)NC(=O)C(NC(=O)CC(c1ncc[nH]1)c1ncc[nH]1)C(C)CC (stereo not drawn) | > 100 µM (inactive) | > 100 µM (inactive) | > 100 µM (inactive) | > 100 µM (inactive) | – | > 100 µM (inactive) | > 100 µM (inactive) | > 100 µM (inactive) | – | > 100 µM (inactive) | > 100 µM (inactive) | > 100 µM (inactive) | > 100 µM (inactive) | > 100 µM (inactive) | > 100 µM (inactive) | > 100 µM (inactive) | > 100 µM (inactive) | > 100 µM (inactive) | > 100 µM (inactive) | > 100 µM (inactive)
N#Cc1ccsc1Nc1ccccc1[N+](=O)[O-] | > 100 µM (inactive) | – | > 100 µM (inactive) | > 100 µM (inactive) | – | – | 47 µM (inactive) | > 100 µM (inactive) | – | > 100 µM (inactive) | 36.6 µM (inactive) | > 100 µM (inactive) | > 100 µM (inactive) | – | > 100 µM (inactive) | 52.2 µM (inactive) | 68.7 µM (inactive) | 72.9 µM (inactive) | > 100 µM (inactive) | > 100 µM (inactive)
COc1ccc(/C=C2/SC(c3c(O)ccc4ccccc34)N(NC(=O)CCCCCCCCC(=O)NN3C(=O)/C(=C\c4ccc(OC)c(OC)c4)SC3c3c(O)ccc4ccccc34)C2=O)cc1OC (stereo not drawn) | 0.755 µM (active) | 0.394 µM (active) | 2.37 µM (inactive) | 1.2 µM (inactive) | 3.65 µM (inactive) | 1.08 µM (active) | 0.418 µM (active) | 1.01 µM (active) | 0.318 µM (active) | 1.77 µM (inactive) | 2.12 µM (inactive) | 0.222 µM (active) | 2.98 µM (inactive) | – | 0.649 µM (active) | 9.2 µM (inactive) | 1.09 µM (active) | 1.26 µM (inactive) | 0.481 µM (active) | 1.56 µM (inactive)
CCOC(=O)c1c(N2CCCC2)[nH]c(=O)c(C(c2cccs2)c2c(O)c(C(=O)OCC)c(N3CCCC3)[nH]c2=O)c1O | > 100 µM (inactive) | > 100 µM (inactive) | > 100 µM (inactive) | > 100 µM (inactive) | > 100 µM (inactive) | > 100 µM (inactive) | > 100 µM (inactive) | > 100 µM (inactive) | > 100 µM (inactive) | > 100 µM (inactive) | > 100 µM (inactive) | 78.2 µM (inactive) | > 100 µM (inactive) | – | > 100 µM (inactive) | > 100 µM (inactive) | > 100 µM (inactive) | > 100 µM (inactive) | – | > 100 µM (inactive)
O=c1cc(-c2ccccc2)nc2[nH]ccn12 | > 10 µM (inactive) | > 10 µM (inactive) | – | > 10 µM (inactive) | > 10 µM (inactive) | > 10 µM (inactive) | > 10 µM (inactive) | > 10 µM (inactive) | > 10 µM (inactive) | > 10 µM (inactive) | > 10 µM (inactive) | > 10 µM (inactive) | > 10 µM (inactive) | > 10 µM (inactive) | > 10 µM (inactive) | > 10 µM (inactive) | – | > 10 µM (inactive) | > 10 µM (inactive) | > 10 µM (inactive)
CCN1CCC(O)(c2ccc(Oc3ccc(C)cc3)cc2)C(C(=O)c2ccc(Oc3ccc(C)cc3)cc2)C1 (stereo not drawn) | 13.2 µM (inactive) | 3.69 µM (inactive) | 13.2 µM (inactive) | 2.95 µM (inactive) | 3.33 µM (inactive) | 18 µM (inactive) | 17 µM (inactive) | – | 8.04 µM (inactive) | 13.8 µM (inactive) | 15.6 µM (inactive) | 5.13 µM (inactive) | 11.2 µM (inactive) | 1.68 µM (inactive) | 3.28 µM (inactive) | 14.2 µM (inactive) | 10 µM (inactive) | 11.6 µM (inactive) | 12.5 µM (inactive) | 12.1 µM (inactive)
O=C(C/C=C/c1ccccc1)c1ccccc1 | 16.6 µM (inactive) | 12 µM (inactive) | 21.9 µM (inactive) | – | 18.2 µM (inactive) | – | 20.7 µM (inactive) | 25 µM (inactive) | 19.5 µM (inactive) | 15.3 µM (inactive) | 35.5 µM (inactive) | 22.2 µM (inactive) | 27.2 µM (inactive) | 16.1 µM (inactive) | 19.9 µM (inactive) | – | 29 µM (inactive) | 14.6 µM (inactive) | 23.5 µM (inactive) | 12.6 µM (inactive)
CCN(CC(=O)O)C(=O)c1cccnc1 | > 100 µM (inactive) | > 100 µM (inactive) | > 100 µM (inactive) | > 100 µM (inactive) | > 100 µM (inactive) | > 100 µM (inactive) | > 100 µM (inactive) | – | – | > 100 µM (inactive) | > 100 µM (inactive) | – | > 100 µM (inactive) | – | > 100 µM (inactive) | > 100 µM (inactive) | > 100 µM (inactive) | > 100 µM (inactive) | > 100 µM (inactive) | > 100 µM (inactive)
COc1ccc2c(c1)C(=O)CC(C(N)=O)C2 (stereo not drawn) | > 100 µM (inactive) | > 100 µM (inactive) | > 100 µM (inactive) | > 100 µM (inactive) | > 100 µM (inactive) | > 100 µM (inactive) | > 100 µM (inactive) | – | > 100 µM (inactive) | > 100 µM (inactive) | > 100 µM (inactive) | > 100 µM (inactive) | > 100 µM (inactive) | > 100 µM (inactive) | > 100 µM (inactive) | > 100 µM (inactive) | > 100 µM (inactive) | > 100 µM (inactive) | > 100 µM (inactive) | > 100 µM (inactive)
COc1ccc2c(c1)CCCN1Cc3cc(OC)c(OC)cc3CC21 (stereo not drawn) | > 100 µM (inactive) | 44.8 µM (inactive) | 56.1 µM (inactive) | 80.7 µM (inactive) | 28.1 µM (inactive) | – | 50.9 µM (inactive) | 81.8 µM (inactive) | 37.8 µM (inactive) | > 100 µM (inactive) | > 100 µM (inactive) | 99.8 µM (inactive) | > 100 µM (inactive) | – | 50.2 µM (inactive) | > 100 µM (inactive) | 15.9 µM (inactive) | > 100 µM (inactive) | 22.1 µM (inactive) | 86.3 µM (inactive)
